For one test, the target named is human recombinant Btk (Homo sapiens (Human), UniProt Q06187). In words: Btk Enzymatic Activity Assay (Caliper-based kinase assay). Format: biochemical. On the procedure:
A Caliper-based kinase assay (Caliper Life Sciences, Hopkinton, Mass.) was used to measure inhibition of Btk kinase activity of a compound of the present disclosure. […] The reaction was then terminated with EDTA, final concentration 20 mM and the phosphorylated reaction product was quantified on a Caliper Desktop Profiler (Caliper LabChip 3000). […] This value is presented as the IC50.

In another test the target is protein target (Homo sapiens (Human), UniProt Q06187). As to the kind of experiment: Reversibility of binding (compound in solution before and after target perturbation, HPLC-MS/MS). On the procedure:
The following approach was developed to differentiate compounds that form irreversible covalent bond with their targets, such as non-cyano containing acrylamide compounds, from compound that form reversible covalent bond i.e., compounds and/or pharmaceutically acceptable salts of the present disclosure. […] The reactions were then treated with perturbations including both denaturation with 5 M guanidine hydrochloride and digestion with trypsin, disrupting proper folding of the target. […] The concentration of compound in solution was assessed both preceding and following perturbation using high performance liquid chromatography (HPLC) coupled to tandem mass spectrometry.

Where [1] appears, read: human recombinant Btk 0.5 nM, ATP 16 μM, room temperature 3 h.

Each structure is given as a SMILES string. Like-named read-outs stand apart in the source and are kept apart here.

From patent US8940744B2, “Pyrazolopyrimidine compounds as kinase inhibitors” (Principia Biopharma Inc., priority 2012, dated 2015) come the findings set out here.

What is called IC50 is the point on the concentration scale where inhibition reaches its midpoint.

human recombinant Btk, sequence (Q06187 whole entry): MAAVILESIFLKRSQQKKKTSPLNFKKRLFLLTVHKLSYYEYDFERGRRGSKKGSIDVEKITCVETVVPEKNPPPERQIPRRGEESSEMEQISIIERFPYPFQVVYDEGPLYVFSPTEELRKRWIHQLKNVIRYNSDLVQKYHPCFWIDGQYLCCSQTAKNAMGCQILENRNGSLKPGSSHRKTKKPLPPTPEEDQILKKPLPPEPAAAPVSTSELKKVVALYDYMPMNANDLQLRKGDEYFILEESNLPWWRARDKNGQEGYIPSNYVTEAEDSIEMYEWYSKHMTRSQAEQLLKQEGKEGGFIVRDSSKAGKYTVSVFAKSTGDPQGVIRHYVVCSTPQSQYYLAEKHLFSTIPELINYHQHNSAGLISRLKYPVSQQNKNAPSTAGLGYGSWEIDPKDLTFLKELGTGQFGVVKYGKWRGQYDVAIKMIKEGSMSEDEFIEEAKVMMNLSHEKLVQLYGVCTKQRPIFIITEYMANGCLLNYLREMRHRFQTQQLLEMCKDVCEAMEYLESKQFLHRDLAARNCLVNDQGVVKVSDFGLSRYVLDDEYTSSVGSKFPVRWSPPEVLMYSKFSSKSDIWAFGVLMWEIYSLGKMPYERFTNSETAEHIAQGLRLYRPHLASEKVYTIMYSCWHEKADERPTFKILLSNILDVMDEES
protein target, sequence (Q06187 whole entry): as above

In the case of `CC(C)(C=C(C#N)C(=O)N1CCC[C@H]1Cn1nc(-c2ccc(Oc3ccccc3)cc2F)c2c(N)ncnc21)N1CCCC1` [Example 5, (S)-2-(2-((4-amino-3-(2-fluoro-4-phenoxyphenyl)-1H-pyrazolo[3,4-d]-pyrimidin-1-yl)-methyl)pyrrolidine-1-carbonyl)-4-methyl-4-(pyrrolidin-1-yl)pent-2-enenitrile], the IC50 on human recombinant Btk (setting [1]) was 1.9 nM.
Still for that read-out and setting: the result for `CC(C)(C=C(C#N)C(=O)N1CCC[C@@H](n2nc(-c3ccc(Oc4ccccc4)cc3F)c3c(N)ncnc32)C1)N1CC(O)C1` [Example 7, 2-((R)-3-(4-amino-3-(2-fluoro-4-phenoxyphenyl)-1H-pyrazolo[3,4-d]pyrimidin-1-yl)piperidine-1-carbonyl)-4-(3-hydroxyazetidin-1-yl)-4-methylpent-2-enenitrile] reads 0.9 nM.
Consider `CN1CCN(C(C)(C)C=C(C#N)C(=O)N2CCC[C@H]2Cn2nc(-c3ccc(Oc4ccccc4)cc3F)c3c(N)ncnc32)CC1` [Example 8, 2-[(2S)-2-[[4-amino-3-(2-fluoro-4-phenoxyphenyl)pyrazolo[3,4-d]pyrimidin-1-yl]-methyl]pyrrolidine-1-carbonyl]-4-methyl-4-(4-methylpiperazin-1-yl)pent-2-enenitrile], for which the IC50 on human recombinant Btk was determined as 3.8 nM.
The same measure, in the same setting: the result for `CCN1CCN(C(C)(C)C=C(C#N)C(=O)N2CCC[C@H]2Cn2nc(-c3ccc(Oc4ccccc4)cc3F)c3c(N)ncnc32)CC1` [Example 8A, 2-[(2S)-2-[[4-amino-3-(2-fluoro-4-phenoxyphenyl)pyrazolo[3,4-d]pyrimidin-1-yl]-methyl]pyrrolidine-1-carbonyl]-4-methyl-4-(4-ethylpiperazin-1-yl)pent-2-enenitrile] reads 0.9 nM.
Consider `CC(C)(C=C(C#N)C(=O)N1CCC[C@H]1Cn1nc(-c2ccc(Oc3ccccc3)cc2F)c2c(N)ncnc21)N1CCNCC1` [Example 9, 2-[(2S)-2-[[4-amino-3-(2-fluoro-4-phenoxy-phenyl)pyrazolo[3,4-d]pyrimidin-1-yl]methyl]pyrrolidine-1-carbonyl]-4-methyl-4-piperazin-1-yl-pent-2-enenitrile], for which the IC50 on human recombinant Btk (setting [1]) came to 4.7 nM.
Consider `CN(C1COC1)C(C)(C)C=C(C#N)C(=O)N1CCC[C@H]1Cn1nc(-c2ccc(Oc3ccccc3)cc2F)c2c(N)ncnc21` [Example 10, 2-[(2S)-2-[[4-amino-3-(2-fluoro-4-phenoxy-phenyl)pyrazolo[3,4-d]pyrimidin-1-yl]methyl]pyrrolidine-1-carbonyl]-4-methyl-4-[methyl(oxetan-3-yl)amino]pent-2-enenitrile], for which the half-maximal inhibitory concentration (IC50) on human recombinant Btk (setting [1]) was found to be 2.1 nM. Besides, the “Compound in solution in the denatured or digested state?” value at protein target (after 5 M guanidine hydrochloride denaturation and trypsin digestion) is given as “yes”. Moreover, the “Compound in solution in the native state?” value on protein target (native (folded) target, target in excess of compound) was “no”.
In the case of `CN(C1COC1)C(C)(C)C=C(C#N)C(=O)N1CCC[C@@H](n2nc(-c3ccc(Oc4ccccc4)cc3F)c3c(N)ncnc32)C1` [Example 13, 2-[(3R)-3-[4-amino-3-(2-fluoro-4-phenoxy-phenyl)pyrazolo[3,4-d]pyrimidin-1-yl]piperidine-1-carbonyl]-4-methyl-4-[methyl(oxetan-3-yl)amino]pent-2-enenitrile], on human recombinant Btk (setting [1]), the IC50 stood at 0.6 nM.
Same read-out and setting: next, `CCN(C1COC1)C(C)(C)C=C(C#N)C(=O)N1CCC[C@@H](n2nc(-c3ccc(Oc4ccccc4)cc3F)c3c(N)ncnc32)C1` [Example 13a, (R)-2-(3-(4-amino-3-(2-fluoro-4-phenoxyphenyl)-1H-pyrazolo[3,4-d]pyrimidin-1-yl)piperidine-1-carbonyl)-4-(ethyl(oxetan-3-yl)amino)-4-methylpent-2-enenitrile]: 0.9 nM; `CC(C)(C=C(C#N)C(=O)N1CCC1Cn1nc(-c2ccc(Oc3ccccc3)cc2F)c2c(N)ncnc21)N1CCOCC1` (stereo not shown) [Example 15, 2-[2-[[4-amino-3-(2-fluoro-4-phenoxy-phenyl)pyrazolo[3,4-d]pyrimidin-1-yl]methyl]azetidine-1-carbonyl]-4-methyl-4-morpholino-pent-2-enenitrile]: 4.1 nM; `CC(C)(C=C(C#N)C(=O)N1CCC[C@@H](n2nc(-c3ccc(Oc4ccccc4)cc3F)c3c(N)ncnc32)C1)N1CCC(O)CC1` [Example 18, (R)-2-(3-(4-amino-3-(2-fluoro-4-phenoxyphenyl)-1H-pyrazolo[3,4-d]pyrimidin-1-yl)piperidine-1-carbonyl)-4-(4-hydroxypiperidin-1-yl)-4-methylpent-2-enenitrile]: 0.7 nM.
On the same count and under the same terms, the result for `CC(C)(/C=C(\C#N)C(=O)N1CCC[C@@H](n2nc(-c3ccc(Oc4ccccc4)cc3F)c3c(N)ncnc32)C1)N1CC2(COC2)C1` [Example 19, 2-[(3R)-3-[4-amino-3-(2-fluoro-4-phenoxy-phenyl)pyrazolo[3,4-d]pyrimidin-1-yl]piperidine-1-carbonyl]-4-methyl-4-(6-oxa-2-azaspiro[3.3]heptan-2-yl)pent-2-enenitrile] reads 1.5 nM.
Consider `CC(C)(C=C(C#N)C(=O)N1CCC[C@H]1Cn1nc(-c2ccc(Oc3ccccc3)cc2F)c2c(N)ncnc21)N1CC2(COC2)C1` [Example 19a, (S)-2-(2-((4-amino-3-(2-fluoro-4-phenoxyphenyl)-1H-pyrazolo[3,4-d]pyrimidin-1-yl)methyl)pyrrolidine-1-carbonyl)-4-methyl-4-(2-oxa-6-azaspiro[3.3]heptan-6-yl)pent-2-enenitrile], for which the IC50 on human recombinant Btk stood at 5.6 nM.
As for `CCN1CCN(C(C)(C)C=C(C#N)C(=O)N2CCC[C@@H](n3nc(-c4ccc(Oc5ccccc5)cc4F)c4c(N)ncnc43)C2)CC1` [Example 20, 2-[(3R)-3-[4-amino-3-(2-fluoro-4-phenoxy-phenyl)pyrazolo[3,4-d]-pyrimidin-1-yl]piperidine-1-carbonyl]-4-(4-ethylpiperazin-1-yl)-4-methyl-pent-2-enenitrile], on human recombinant Btk (setting [1]), the concentration for half-maximal inhibition (IC50) came out at 0.9 nM.
In the case of `CC(C)N1CCN(C(C)(C)C=C(C#N)C(=O)N2CCC[C@@H](n3nc(-c4ccc(Oc5ccccc5)cc4F)c4c(N)ncnc43)C2)CC1` [Example 21, (R)-2-(3-(4-amino-3-(2-fluoro-4-phenoxyphenyl)-1H-pyrazolo[3,4-d]pyrimidin-1-yl)piperidine-1-carbonyl)-4-(4-isopropylpiperazin-1-yl)-4-methylpent-2-enenitrile], the IC50 on human recombinant Btk (setting [1]) is 0.7 nM.
For `CC(C)(C=C(C#N)C(=O)N1CCC[C@@H](n2nc(-c3ccc(Oc4ccccc4)cc3F)c3c(N)ncnc32)C1)N1CCN(S(C)(=O)=O)CC1` [Example 25, (R)-2-(3-(4-amino-3-(2-fluoro-4-phenoxyphenyl)-1H-pyrazolo[3,4-d]pyrimidin-1-yl)piperidine-1-carbonyl)-4-methyl-4-(4-(methylsulfonyl)piperazin-1-yl)pent-2-enenitrile], the IC50 on human recombinant Btk (setting [1]) was found to be 1.4 nM.
Consider `CC(C)(C=C(C#N)C(=O)N1CCC[C@H]1Cn1nc(-c2ccc(Oc3ccccc3)cc2F)c2c(N)ncnc21)CN1CCOCC1` [Example 30, (S)-2-(2-((4-amino-3-(2-fluoro-4-phenoxyphenyl)-1H-pyrazolo[3,4-d]pyrimidin-1-yl)methyl)pyrrolidine-1-carbonyl)-4,4-dimethyl-5-morpholinopent-2-enenitrile], for which the concentration for half-maximal inhibition (IC50) at human recombinant Btk (setting [1]) came to 5.2 nM.
Regarding `CCN1CCN(C(C)(C)C=C(C#N)C(=O)N2CCC[C@@H](n3nc(-c4ccc(Oc5ccccc5)cc4F)c4c(N)ncnc43)C2)CC1=O` [Example 34, (R)-2-(3-(4-amino-3-(2-fluoro-4-phenoxyphenyl)-1H-pyrazolo[3,4-d]pyrimidin-1-yl)piperidine-1-carbonyl)-4-(4-ethyl-3-oxopiperazin-1-yl)-4-methylpent-2-enenitrile], at human recombinant Btk (setting [1]), the IC50 is 1.3 nM.
